Data from PMC10298982, “Stability Characterization of the Novel Anti-Cancer HM-10/10 HDL-Mimetic Peptide” (International Journal of Molecular Sciences, 2023).
Like-named read-outs stand apart in the source and are kept apart here. Ends that are not written are not given here.

Legend:
[1] = Protein binding in beagle dog plasma (ultracentrifugation); settings: beagle, dog, plasma (K2EDTA), pH 7.4
[2] = test system: beagle dog plasma proteins; assay: as above; settings: Beagle dog plasma (K2EDTA); 2 μM; 2.5 h at 37 °C
CYP3A4 = CYP3A4 (Homo sapiens, UniProt P08684); assay: CYP450 time-dependent inhibition, CYP3A4 (midazolam and testosterone substrates), pooled human liver microsomes; type: in vitro ADME
CYP3A4, sequence (P08684 whole entry): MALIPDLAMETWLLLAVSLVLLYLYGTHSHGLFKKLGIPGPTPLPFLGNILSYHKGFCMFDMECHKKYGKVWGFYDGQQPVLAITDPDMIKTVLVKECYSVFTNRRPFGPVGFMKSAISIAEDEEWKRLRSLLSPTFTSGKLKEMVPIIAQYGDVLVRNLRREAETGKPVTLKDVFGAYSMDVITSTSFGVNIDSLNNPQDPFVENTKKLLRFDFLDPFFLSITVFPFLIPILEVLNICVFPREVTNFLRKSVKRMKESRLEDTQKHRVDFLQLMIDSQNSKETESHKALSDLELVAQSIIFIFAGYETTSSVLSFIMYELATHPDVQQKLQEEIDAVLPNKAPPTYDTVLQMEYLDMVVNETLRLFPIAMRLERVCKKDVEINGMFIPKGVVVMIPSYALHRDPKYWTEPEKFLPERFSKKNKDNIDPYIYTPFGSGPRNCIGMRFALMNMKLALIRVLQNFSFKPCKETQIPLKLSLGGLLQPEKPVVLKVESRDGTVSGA

[3] = Test article stability over 24 h incubation with hepatocytes in the induction assay; type: in vitro ADME, human; settings: average of three lots, both days
Method: For each 24 h incubation, 50 µL of each medium containing the test article (HM-10/10) were collected at the start (T0) and end of 24 h incubation (T24) and quenched with 300 µL of 1% perchloric acid in methanol and 50 µL of internal standard cocktail (carbutamide, chrysin, and glyburide each at 1.71 µg/mL water). These samples were analyzed to test the stability of HM-10/10 after 24 h incubation with the hepatocytes. The quenched sample plates were stored covered in a −20 °C freezer.

CYP2D6 = CYP2D6 (Homo sapiens, UniProt P10635); settings: microsomes
CYP2D6, sequence (P10635 whole entry): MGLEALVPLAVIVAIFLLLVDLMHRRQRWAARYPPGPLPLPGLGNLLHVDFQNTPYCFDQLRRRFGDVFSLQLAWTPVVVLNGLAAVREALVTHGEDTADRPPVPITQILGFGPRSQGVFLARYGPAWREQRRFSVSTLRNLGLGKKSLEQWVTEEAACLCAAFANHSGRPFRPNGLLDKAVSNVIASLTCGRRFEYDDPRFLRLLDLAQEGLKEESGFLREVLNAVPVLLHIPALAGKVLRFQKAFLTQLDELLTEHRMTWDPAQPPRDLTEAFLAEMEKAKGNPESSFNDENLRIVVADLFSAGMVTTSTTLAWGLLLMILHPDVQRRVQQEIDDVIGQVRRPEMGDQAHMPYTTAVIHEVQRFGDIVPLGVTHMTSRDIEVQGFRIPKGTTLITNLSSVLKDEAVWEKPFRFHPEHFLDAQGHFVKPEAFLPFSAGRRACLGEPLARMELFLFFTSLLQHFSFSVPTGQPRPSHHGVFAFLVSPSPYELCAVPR

[4] = Protein binding in human plasma (ultracentrifugation); type: in vitro ADME; settings: pH 7.4, Human plasma (K2EDTA)
[5] = Metabolic stability in beagle dog liver microsomes; type: in vitro ADME; settings: for CLint scaled: dog, microsomes, Beagle dog liver microsomes 0.5 mg protein/mL, 2 μM
CYP1A2 [6] = target: T1, CYP1A2 (Homo sapiens, UniProt P05177); settings: microsomes
T1 sequence (P05177 1-516): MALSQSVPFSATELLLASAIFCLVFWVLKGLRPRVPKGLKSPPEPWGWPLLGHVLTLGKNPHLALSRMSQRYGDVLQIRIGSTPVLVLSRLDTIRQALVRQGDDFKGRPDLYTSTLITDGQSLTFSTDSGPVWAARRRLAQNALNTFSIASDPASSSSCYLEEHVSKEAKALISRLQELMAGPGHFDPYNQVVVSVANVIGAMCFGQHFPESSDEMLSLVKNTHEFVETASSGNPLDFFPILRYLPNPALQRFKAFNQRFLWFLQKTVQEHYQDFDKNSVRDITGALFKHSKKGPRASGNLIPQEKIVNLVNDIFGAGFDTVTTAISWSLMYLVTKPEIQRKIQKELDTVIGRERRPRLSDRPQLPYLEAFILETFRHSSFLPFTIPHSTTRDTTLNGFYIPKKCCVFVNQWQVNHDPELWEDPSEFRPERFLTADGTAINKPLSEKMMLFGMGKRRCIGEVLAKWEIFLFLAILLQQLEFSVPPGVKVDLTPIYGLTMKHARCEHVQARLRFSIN

CYP1A2 [7] = assay: CYP1A2 induction (enzyme activity) in single-donor human hepatocytes; type: in vitro ADME; settings: for Fold Increase (Enzyme Activity) Mean: mean of three lots
Method: The transport medium was replaced with 200 μL of warm (37 °C) incubation medium (InVitroGRO HI, BioIVT Catalog No. Z99009) and the plate was placed in a humidified 5% carbon dioxide incubator at 37 °C for 24 h.
In addition, test article vehicle (PBS) was added to warm (37°C) InVitroGRO HI Medium in a 5:95 (v:v) ratio. […] The plates were removed from the incubator and the hepatocytes were prepared for the induction assay by replacing the cell culture medium with medium containing either the test article, a control inducer, or vehicle control (200 µL per well). The hepatocyte plates were returned to the cell culture incubator and incubated for 24 h.
On Day 3, induction was repeated following the same steps as described above for the previous day, and plates were returned to the cell culture incubator for an additional 24 h.
After aliquots were taken to measure test article stability, all the remaining medium from each well in the hepatocyte plate was removed, all wells were washed once using 200 μL of blank assay buffer, and then 100 μL of the 1000-fold diluted substrate solutions were added to the appropriate wells. The assay plate was returned to the humidified 5% carbon dioxide incubator at 37 °C for 1 h incubation.
At the end of the incubation time, 100 μL of mRNA lysis buffer was added to each well to stop the reaction. Fifty microliters of this reaction mixture were transferred into a new plate and quenched with 200 μL of ice-cold acetonitrile containing a CYP-specific stable labeled internal standard (250 ng/mL acetaminophen-d4, 250 ng/mL hydroxybupropion-d6, or 250 ng/mL hydroxytestosterone-d3). After removal of the aliquots from the plate for enzyme activity determination, the assay plates were sealed and stored in a −70 °C freezer until use for RT-PCR, mRNA analysis.
For the induction assay samples, an aliquot (50 µL) of the supernatant was transferred to a new plate and diluted with 100 µL Milli-Q water. For the test article stability samples, an aliquot (50 µL) of the supernatant was transferred to a new plate and diluted with 60 µL 0.1% formic acid in Milli-Q water. These samples for the enzyme activity assay and article stability test were refrigerated for storage until analysis. […]
HM1010: Induction Potential of Cytochrome P450 Enzymes
(CYP1A2, CYP2B6 and CYP3A4) Using Human Cryopreserved Hepatocytes
Testing Facility Study No.
The purpose of this in-vitro study was to determine the induction potential of HM1010 on human
cytochrome P450 (CYP) isoenzyme (1A2, 2B6 and 3A4) activity. The study design is
Matrix: Inducible cryopreserved human hepatocytes three single-donor lots
Assay Buffer: InVitroGRO KHB
Substrates: Phenacetin (1A2), Bu propion (2B6), and Testosterone (3A4)
Assay conditions: 48 hours at 37°C in humidified 5% carbon dioxide incubator
Analysis: LC-MS/MS (enzyme activity) and mRNA analysis

Sequence: LRKLRKRLLRLVGRQLEEFL [HM-10/10, LRKLRKRLLRLVGRQLEEFL]
- fraction unbound at 2.5 h, 2 µM [1]: 0.648 ± 0.265
- remaining at 2.5 h, 2 µM [1]: 29.2%
- % Protein Bound Mean ± SD [2]: 35.2 ± 26.5%
- % Protein Free Mean ± SD [2]: 64.8 ± 26.5%
- % Inhibition at 50 µM No PI + NADPH (CYP3A4; Midazolam (3A4)): 6.6%
- % Inhibition at 50 µM No PI − NADPH (CYP3A4; Midazolam (3A4)): 19.2%
- % Inhibition at 50 µM PI + NADPH (CYP3A4; Midazolam (3A4)): 13.9%
- % Inhibition at 50 µM PI − NADPH (CYP3A4; Midazolam (3A4)): 29.5%
- % Inhibition at 50 µM No PI + NADPH (CYP3A4; Testosterone (3A4)): 6.9%
- % Inhibition at 50 µM No PI − NADPH (CYP3A4; Testosterone (3A4)): −0.7%
- % Inhibition at 50 µM PI + NADPH (CYP3A4; Testosterone (3A4)): 11.3%
- % Inhibition at 50 µM PI − NADPH (CYP3A4; Testosterone (3A4)): 32.2%
- Average % Stability ([3]; 10 µM): 0.7%
- remaining at 24 h, 2 µM ([3]; human, plated human hepatocytes, three single-donor lots, 2 µM): 0.6%
- remaining at 24 h, 25 µM ([3]; human, plated human hepatocytes, three single-donor lots, 25 µM): 0.3%
- % Inhibition at 50 µM No PI + NADPH (CYP2D6): 6.0%
- % Inhibition at 50 µM No PI − NADPH (CYP2D6): 17.2%
- % Inhibition at 50 µM PI + NADPH (CYP2D6): 17.0%
- % Inhibition at 50 µM PI − NADPH (CYP2D6): 19.7%
- remaining at 2.5 h, 2 µM ([4]; 37 °C, read-out: % Stability in Matrix (2.5 h)): 88.5%
- fraction unbound at 2.5 h, 2 µM ([4]; 2.5 h at 37 °C, read-out: Fu (Unbound Fraction) Mean ± SD): 0.203 ± 0.055
- CLint scaled ([5]; read-out: CLint (L/hr/kg) (converted)): 2.83 L/h/kg
- CLint scaled ([5]; read-out: CLint (mL/min/kg)): 2.83 L/h/kg
- half-life at 2 µM ([5]; pooled liver microsomes, pH 7.4, Beagle dog liver microsomes 0.5 mg protein/mL): 33 min
- remaining at 2 h, 2 µM ([5]; pooled liver microsomes, pH 7.4, Beagle dog liver microsomes 0.5 mg protein/mL, read-out: % Remaining at 120 min): 1.5%
- % Inhibition at 50 µM No PI + NADPH (CYP1A2 [6]): −18.0%
- % Inhibition at 50 µM No PI − NADPH (CYP1A2 [6]): −20.7%
- % Inhibition at 50 µM PI + NADPH (CYP1A2 [6]): 0.1%
- % Inhibition at 50 µM PI − NADPH (CYP1A2 [6]): −15.8%
- Fold Increase (Enzyme Activity) Lot HH1086 (CYP1A2 [7]; 2 µM): 0.682 fold
- Fold Increase (Enzyme Activity) Lot HH1142 (CYP1A2 [7]; 2 µM): 1.33 fold
- Fold Increase (Enzyme Activity) Lot HH1144 (CYP1A2 [7]; 2 µM): 1.73 fold
- Fold Increase (Enzyme Activity) Mean (CYP1A2 [7]; 2 µM): 1.25 fold
- Fold Increase (Enzyme Activity) Lot HH1086 (CYP1A2 [7]; 10 µM): 1.88 fold
- Fold Increase (Enzyme Activity) Lot HH1142 (CYP1A2 [7]; 10 µM): 5.19 fold
- Fold Increase (Enzyme Activity) Lot HH1144 (CYP1A2 [7]; 10 µM): 3.32 fold
- Fold Increase (Enzyme Activity) Mean (CYP1A2 [7]; 10 µM): 3.46 fold
- Fold Increase (Enzyme Activity) Lot HH1086 (CYP1A2 [7]; 25 µM): 2.46 fold
- Fold Increase (Enzyme Activity) Lot HH1142 (CYP1A2 [7]; 25 µM): 5.98 fold
- Fold Increase (Enzyme Activity) Lot HH1144 (CYP1A2 [7]; 25 µM): 3.65 fold
- Fold Increase (Enzyme Activity) Mean (CYP1A2 [7]; 25 µM): 4.03 fold
